In PubChem BioAssay AID1845200 (Molecular Pharmacology Branch, DTP, NCI, 2023):
The source made the active and inactive calls. Rule for the calls: active = viability on the fitted dose curve at most 10% of control; inactive = the rest.

Test system: ASPS-1 complex tumor spheroids, viability
Experiment: Anticancer human tumor ASPS-1 cell line growth inhibition;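 note: spheroids exposed to agents for 7 days after 3 days of growth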;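 for viability, T/C: 100% = DMSO vehicle treated spheroids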
Conditions: for IC50: curve of first compound; for viability, T/C: stronger effect = lower value
Summary of the method: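 Single agents and combinations were tested on spheroids built from tumor cells plus HUVEC and hMSC, at half-log dilutions starting at or near clinical Cmax, else 10 microM; final DMSO 0.25% (v/v).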

[1] = second compound 1 µM, first compound 0.00949 µM
[2] = second compound 1 µM, first compound 0.03 µM
[3] = second compound 1 µM, first compound 0.0949 µM
[4] = second compound 1 µM, first compound 0.3 µM
[5] = second compound 1 µM, first compound 0.949 µM
[6] = second compound 1 µM, first compound 3 µM
[7] = second compound 3.16 µM, first compound 0.00949 µM
[8] = second compound 3.16 µM, first compound 0.03 µM
[9] = second compound 3.16 µM, first compound 0.0949 µM
[10] = second compound 3.16 µM, first compound 0.3 µM
[11] = second compound 3.16 µM, first compound 0.949 µM
[12] = second compound 3.16 µM, first compound 3 µM
[13] = second compound 10 µM, first compound 0.00949 µM
[14] = second compound 10 µM, first compound 0.03 µM
[15] = second compound 10 µM, first compound 0.0949 µM
[16] = second compound 10 µM, first compound 0.3 µM
[17] = second compound 10 µM, first compound 0.949 µM
[18] = second compound 10 µM, first compound 3 µM
[19] = second compound 31.6 µM, first compound 0.00949 µM
[20] = second compound 31.6 µM, first compound 0.03 µM
[21] = second compound 31.6 µM, first compound 0.0949 µM
[22] = second compound 31.6 µM, first compound 0.3 µM
[23] = second compound 31.6 µM, first compound 0.949 µM
[24] = second compound 31.6 µM, first compound 3 µM
[25] = second compound 100 µM, first compound 0.00949 µM
[26] = second compound 100 µM, first compound 0.03 µM
[27] = second compound 100 µM, first compound 0.0949 µM
[28] = second compound 100 µM, first compound 0.3 µM
[29] = second compound 100 µM, first compound 0.949 µM
[30] = second compound 100 µM, first compound 3 µM

Structure (SMILES) | IC50 (second compound 1 µM) | IC50 (second compound 3.16 µM) | IC50 (second compound 10 µM) | IC50 (second compound 31.6 µM) | IC50 (second compound 100 µM) | viability, T/C [3] | viability, T/C [4] | viability, T/C [5] | viability, T/C [6] | viability, T/C [9] | viability, T/C [10] | viability, T/C [11] | viability, T/C [12] | viability, T/C [15] | viability, T/C [16] | viability, T/C [17] | viability, T/C [18] | viability, T/C [21] | viability, T/C [22] | viability, T/C [23] | other results
CNCc1ccc(-c2cc(-c3nc(-c4ccc(S(=O)(=O)C(C)C)cc4)cnc3N)on2)cc1 + Cn1nnc2c(C(N)=O)ncn2c1=O | 0.565 µM | 0.738 µM | 0.259 µM | 0.292 µM | 0.184 µM | 105% | 72.5% | 31.1% | 7.06% | 92.6% | 69.3% | 45.6% | 9.69% | 87% | 40% | 30.4% | 6.72% | 67.4% | 48.7% | 31.2% | viability, T/C [1]: 104%; viability, T/C [2]: 104%; viability, T/C [7]: 109%; viability, T/C [8]: 106%; viability, T/C [13]: 98.8%; viability, T/C [14]: 103%; viability, T/C [19]: 88.5%; viability, T/C [20]: 78.9%; viability, T/C [24]: 12.9%; viability, T/C [25]: 79.1%; viability, T/C [26]: 78.4%; viability, T/C [27]: 58.2%; viability, T/C [28]: 41.6%; viability, T/C [29]: 21.7%; viability, T/C [30]: 1.51%
Cn1ncnc1[C@H]1c2n[nH]c(=O)c3cc(F)cc(c23)N[C@@H]1c1ccc(F)cc1 + Cn1nnc2c(C(N)=O)ncn2c1=O | > 3 µM | > 3 µM | > 3 µM | > 3 µM | > 3 µM | 97.5% | 103% | 96.3% | 74.1% | 96.2% | 95.8% | 91.1% | 67.8% | 80.1% | 83.4% | 71.7% | 61.1% | 76% | 67% | 56.5% | viability, T/C [1]: 98.8%; viability, T/C [2]: 98.9%; viability, T/C [7]: 99.7%; viability, T/C [8]: 95%; viability, T/C [13]: 86.2%; viability, T/C [14]: 89.6%; viability, T/C [19]: 78.5%; viability, T/C [20]: 76.3%; viability, T/C [24]: 53.2%; viability, T/C [25]: 56.4%; viability, T/C [26]: 50.8%; viability, T/C [27]: 52.2%; viability, T/C [28]: 58.7%; viability, T/C [29]: 54.5%; viability, T/C [30]: 50.8%
O=C(c1cc(Cc2n[nH]c(=O)c3ccccc23)ccc1F)N1CCN(C(=O)C2CC2)CC1 + Cn1nnc2c(C(N)=O)ncn2c1=O | > 30 µM | > 30 µM | > 30 µM | > 30 µM | 3.4 µM | 94.4% | 83.3% | 92.6% | 82.5% | 97.6% | 94.2% | 115% | 95.6% | 85.8% | 82.4% | 82.8% | 78.1% | 78.8% | 70.5% | 81.9% | viability, T/C (second compound 1 µM, first compound 9.49 µM): 95.6%; viability, T/C (second compound 1 µM, first compound 30 µM): 79.2%; outcome (second compound 3.16 µM, first compound 9.49 µM): inactive; viability, T/C (second compound 3.16 µM, first compound 30 µM): 76%; viability, T/C (second compound 10 µM, first compound 9.49 µM): 76.7%; viability, T/C (second compound 10 µM, first compound 30 µM): 75.5%; viability, T/C [24]: 72.3%; viability, T/C (second compound 31.6 µM, first compound 9.49 µM): 72.4%; viability, T/C (second compound 31.6 µM, first compound 30 µM): 58.6%; viability, T/C [27]: 68.7%; viability, T/C [28]: 61.1%; viability, T/C [29]: 51%; viability, T/C [30]: 54.3%; viability, T/C (second compound 100 µM, first compound 9.49 µM): 44.3%; viability, T/C (second compound 100 µM, first compound 30 µM): 49.1%
